Measurements published in publication PMC12503906, “Novel Pyrazolo [1,5‐a]−1,3,5‐Triazine Derivatives as CDK7 Inhibitors: Synthesis and Biological Insights in Pancreatic Ductal Adenocarcinoma Models” (Chemmedchem, 2025).

Experiments:
[1] = test system: peptide substrates specific to tyrosine kinases; test: Kinase activity profiling, PamChip array, peptide substrates / other kinases; type: cell-based; conditions: PDAC‐3 primary cells, IC50 concentration, 2 h, Pamgene array
Protocol: (§1) A Kinase activity profiling was conducted using a PamChip (Pamgene, s‐Hertogenbosch, The Netherlands) array containing 144 peptide substrates specific to tyrosine kinases to assess activity changes upon treatment with compounds 1b and 1g. Experiments were carried out in PDAC3 cells, using biological triplicates comprising three untreated controls and three samples treated for 2 h with either compound at their respective 1 × IC50 concentrations, following protocols adapted from previous studies.^[ [38] ^] Protein concentrations were quantified using the Bio‐Rad protein assay, which is based on the Bradford method (Bio‐Rad, Hercules, CA). For chip loading, protein lysates were adjusted to a final concentration of 10 µg per array and combined with PamGene MasterMix. During the assay, samples were circulated through the array at 30 °C with one cycle per minute over 60 cycles. Fluorescence data acquisition was performed using a 12‐bit CCD camera, capturing real‐time fluorescence intensities. End‐point spot intensities were analyzed using the open‐source software ScanAnalyze, with background normalization applied. Statistical comparisons were performed using student's t‐test in R (version 3.6.1), followed by false discovery rate (FDR) correction.

CDK7 = CDK7 (Homo sapiens, UniProt P50613); test: Kinase activity profiling, PamChip array, CDK7; type: cell-based; parameters: endogenous in cells; host or cells: PDAC3 primary cells; conditions: PDAC‐3 primary cells, IC50 concentration, 2 h, Pamgene array
Sequence of CDK7 (P50613 2-346 limits assumed): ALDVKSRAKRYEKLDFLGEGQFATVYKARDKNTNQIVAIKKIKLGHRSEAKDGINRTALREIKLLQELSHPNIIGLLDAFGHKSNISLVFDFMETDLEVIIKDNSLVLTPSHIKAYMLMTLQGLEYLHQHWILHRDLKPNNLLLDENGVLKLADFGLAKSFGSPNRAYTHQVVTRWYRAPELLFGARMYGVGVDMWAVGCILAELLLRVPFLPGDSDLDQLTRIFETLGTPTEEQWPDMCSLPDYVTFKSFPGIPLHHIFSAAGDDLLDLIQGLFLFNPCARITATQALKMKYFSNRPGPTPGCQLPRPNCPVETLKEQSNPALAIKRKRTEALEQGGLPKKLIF
Sequence of CDK7 (P51946 whole entry partner): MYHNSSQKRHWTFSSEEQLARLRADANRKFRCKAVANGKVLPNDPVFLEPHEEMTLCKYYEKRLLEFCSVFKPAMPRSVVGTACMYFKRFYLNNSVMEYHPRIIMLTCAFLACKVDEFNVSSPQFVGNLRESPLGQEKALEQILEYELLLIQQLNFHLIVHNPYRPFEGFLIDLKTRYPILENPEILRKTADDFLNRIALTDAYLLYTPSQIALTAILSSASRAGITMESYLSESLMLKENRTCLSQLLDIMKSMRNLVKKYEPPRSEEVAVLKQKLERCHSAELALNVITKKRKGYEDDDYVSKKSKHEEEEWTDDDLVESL
Sequence of CDK7 (P51948 whole entry partner): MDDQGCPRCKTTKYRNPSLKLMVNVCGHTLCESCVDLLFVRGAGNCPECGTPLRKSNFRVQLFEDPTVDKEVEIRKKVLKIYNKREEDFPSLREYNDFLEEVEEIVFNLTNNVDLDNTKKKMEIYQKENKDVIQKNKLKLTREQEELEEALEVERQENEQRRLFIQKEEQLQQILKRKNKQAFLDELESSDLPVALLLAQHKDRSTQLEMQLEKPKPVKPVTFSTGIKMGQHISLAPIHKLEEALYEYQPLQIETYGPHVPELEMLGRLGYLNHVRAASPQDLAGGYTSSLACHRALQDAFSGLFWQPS
Protocol: as §1

inhibition of phosphorylation, CDK7 (decrease vs untreated controls) (CDK7): 70%
Compound: Nc1ncnc2cc(-c3c[nH]c4ccc(Br)cc34)nn12 [Compound 1b, 7‐(5‐Bromo‐1H‐indol‐3‐yl)pyrazolo[1,5‐a][1,3,5]triazin‐4‐amine]
inhibition of the other kinases (other than CDK7) [1]: below 50%
